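Cells were grown in 96-well plates and exposed to each compound for 48 hours at five concentrations; endpoints were interpolated linearly between bracketing concentrations, or set to the highest concentration if not reached. TGI is the concentration that stops growth completely.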
Experiments:
Test in all cases: NCI tumour cell line growth inhibition, 48 h
[1] = tested on: PC-3 prostate
[2] = tested on: A498 renal
[3] = tested on: MDA-N
[4] = tested on: K-562 leukemia
[5] = tested on: UACC-257 melanoma
[6] = tested on: OVCAR-3 ovarian
[7] = tested on: COLO 205 colon
[8] = tested on: A549 NSCLC
[9] = tested on: ACHN renal
[10] = tested on: UACC-62 melanoma
[11] = tested on: MOLT-4 leukemia
[12] = tested on: EKVX NSCLC
[13] = tested on: HT29 colon
[14] = tested on: MDA-MB-231 breast
[15] = tested on: RPMI-8226 leukemia
[16] = tested on: HCT-116 colon
[17] = tested on: SK-MEL-5 melanoma
[18] = tested on: BT-549 breast
[19] = tested on: MCF7 breast
[20] = tested on: SF-295 CNS
[21] = tested on: HCT-15 colon
[22] = tested on: NCI/ADR-RES ovarian
[23] = tested on: NCI-H226 lung
[24] = tested on: DU-145 prostate
[25] = tested on: NCI-H23 lung
[26] = tested on: CAKI-1 renal
[27] = tested on: MDA-MB-435
[28] = tested on: HOP-62 NSCLC
[29] = tested on: SNB-75 CNS
[30] = tested on: OVCAR-8 ovarian
[31] = tested on: IGROV1 ovarian
[32] = tested on: MALME-3M melanoma
[33] = tested on: TK-10 renal
[34] = tested on: SK-MEL-2 melanoma
[35] = tested on: M14 melanoma
[36] = tested on: 786-0 renal
[37] = tested on: KM12 colon
[38] = tested on: SF-539 CNS
[39] = tested on: LOX IMVI melanoma
[40] = tested on: SK-OV-3 ovarian
[41] = tested on: UO-31 renal
[42] = tested on: SK-MEL-28 melanoma
[43] = tested on: SN12C renal
[44] = tested on: T-47D breast
[45] = tested on: NCI-H460 lung
[46] = tested on: HCC-2998 colon
[47] = tested on: NCI-H522 lung
[48] = tested on: U251 CNS
[49] = tested on: HOP-92 NSCLC
[50] = tested on: SF-268 CNS
[51] = tested on: SW-620 colon
[52] = tested on: SNB-19 CNS
[53] = tested on: HS 578T breast
[54] = tested on: OVCAR-5 ovarian
[55] = tested on: RXF 393 renal
[56] = tested on: OVCAR-4 ovarian
[57] = tested on: CCRF-CEM leukemia
[58] = tested on: SR leukemia
[59] = tested on: HL-60(TB) leukemia

In the case of `O=C(/C=C/c1ccc(Cl)cc1)Oc1ccc(C=C2CCC/C(=C\c3ccc(OC(=O)/C=C/c4ccc(Cl)cc4)cc3)C2=O)cc1`, the TGI [1] is reported as greater than 100 µM, the TGI [2] is reported as greater than 100 µM and the TGI [3] is reported as greater than 100 µM. For the same compound, the TGI [4] was greater than 100 µM, the TGI [5] was greater than 100 µM and the TGI [6] was greater than 100 µM. The TGI [7] was greater than 100 µM, the TGI [8] was greater than 100 µM and the TGI [9] was greater than 100 µM. It also gave a TGI [10] greater than 100 µM, a TGI [11] greater than 100 µM and a TGI [12] greater than 100 µM. It also gave a TGI [13] greater than 100 µM, a TGI [14] greater than 100 µM and a TGI [15] of 97.1 µM. It also gave a TGI [16] greater than 100 µM, a TGI [17] greater than 100 µM and a TGI [18] greater than 100 µM. For the same compound, the TGI [19] was greater than 100 µM, the TGI [20] was greater than 100 µM and the TGI [21] was greater than 100 µM. For the same compound, the TGI [22] was greater than 100 µM, the TGI [23] was greater than 100 µM and the TGI [24] was greater than 100 µM. For the same compound, the TGI [25] was greater than 100 µM, the TGI [26] was greater than 100 µM and the TGI [27] was greater than 100 µM. For the same compound, the TGI [28] was greater than 100 µM, the TGI [29] was greater than 100 µM and the TGI [30] was greater than 100 µM. It also gave a TGI [31] greater than 100 µM, a TGI [32] greater than 100 µM and a TGI [33] greater than 100 µM. The TGI [34] was greater than 100 µM, the TGI [35] was greater than 100 µM and the TGI [36] was greater than 100 µM. For the same compound, the TGI [37] was greater than 100 µM, the TGI [38] was greater than 100 µM and the TGI [39] was greater than 100 µM. It also gave a TGI [40] greater than 100 µM, a TGI [41] greater than 100 µM and a TGI [42] greater than 100 µM. For the same compound, the TGI [43] was greater than 100 µM, the TGI [44] was greater than 100 µM and the TGI [45] was greater than 100 µM. For the same compound, the TGI [46] was greater than 100 µM, the TGI [47] was greater than 100 µM and the TGI [48] was greater than 100 µM. The TGI [49] was greater than 100 µM, the TGI [50] was greater than 100 µM and the TGI [51] was greater than 100 µM. The TGI [52] was greater than 100 µM, the TGI [53] was greater than 100 µM and the TGI [54] was greater than 100 µM. For the same compound, the TGI [55] was greater than 100 µM and the TGI [56] was greater than 100 µM.

`COC(=O)CNC(=O)C(CSC(=O)OCC1c2ccccc2-c2ccccc21)NC(=O)CCC(NC(=O)OCC1c2ccccc2-c2ccccc21)C(=O)OC` (stereo not drawn) gave a TGI [1] greater than 100 µM, a TGI [57] of 38.7 µM and a TGI [3] of 38.5 µM. It also gave a TGI [4] of 82.7 µM, a TGI [5] greater than 100 µM and a TGI [6] of 32 µM. The TGI [7] was 78.9 µM, the TGI [8] was 27.5 µM and the TGI [9] was greater than 100 µM. The TGI [11] was 56.8 µM, the TGI [12] was greater than 100 µM and the TGI [58] was 37.5 µM. The TGI [14] was 30.2 µM, the TGI [15] was 90.1 µM and the TGI [16] was 32.5 µM. It also gave a TGI [17] greater than 100 µM, a TGI [18] of 31.3 µM and a TGI [19] of 42.8 µM. The TGI [20] was 31.2 µM, the TGI [21] was greater than 100 µM and the TGI [22] was greater than 100 µM. It also gave a TGI [23] greater than 100 µM, a TGI [24] greater than 100 µM and a TGI [25] of 37 µM. For the same compound, the TGI [26] was 19.9 µM, the TGI [27] was 67.4 µM and the TGI [28] was 40.2 µM. For the same compound, the TGI [30] was 30.4 µM, the TGI [31] was 31.6 µM and the TGI [32] was 76.8 µM. The TGI [33] was greater than 100 µM, the TGI [34] was 31.1 µM and the TGI [35] was 58.9 µM. The TGI [36] was 26.6 µM, the TGI [38] was 37.8 µM and the TGI [39] was 21.1 µM. It also gave a TGI [40] of 74.6 µM, a TGI [41] of 35 µM and a TGI [42] greater than 100 µM. It also gave a TGI [43] greater than 100 µM, a TGI [45] of 59.2 µM and a TGI [46] of 40.7 µM. The TGI [47] was 17 µM, the TGI [49] was 30.8 µM and the TGI [50] was 51.9 µM. It also gave a TGI [51] greater than 100 µM, a TGI [59] of 46.8 µM and a TGI [52] of 68.1 µM. It also gave a TGI [53] greater than 100 µM, a TGI [54] of 76.7 µM and a TGI [55] of 32 µM. The TGI [56] was 33.4 µM.

From PubChem BioAssay (NCI)
